Results as given in patent US11142514B2, “Imino compounds with a 2-chloropyrimidin-5-yl substituent as pest-control agents” (BASF SE, priority 2015, dated 2021).

Legend:
Format in all cases: in vivo
[1] = system: Diamond back moth (Plutella xylostella); assay: Diamond back moth (Plutella xylostella) leaf dip test B.6; conditions: 300 ppm; cabbage leaf dip; 72 hours after treatment
Description: (§1) The active compound was dissolved at the desired concentration in a mixture of 1:1 (vol:vol) distilled water: acetone. Surfactant (Kinetic® HV) was added at a rate of 0.01% (vol/vol). The test solution was prepared at the day of use.
Leaves of cabbage were dipped in test solution and air-dried. Treated leaves were placed in petri dishes lined with moist filter paper and inoculated with ten 3rd instar larvae. Mortality was recorded 72 hours after treatment. Feeding damages were also recorded using a scale of 0-100%.

[2] = system: Cotton aphid (Aphis gossypii); assay: Cotton aphid (Aphis gossypii) foliar spray test B.3; conditions: for Activity in %: comparative experiment, 300 ppm, assay according to B.3
Description: (§2) The active compounds were formulated by a Tecan liquid handler in 100% cyclohexanone as a 10,000 ppm solution supplied in tubes. The 10,000 ppm solution was serially diluted in 100% cyclohexanone to make interim solutions. These served as stock solutions for which final dilutions were made by the Tecan in 50% acetone:50% water (v/v) into 10 or 20 ml glass vials. A nonionic surfactant (Kinetic®) was included in the solution at a volume of 0.01% (v/v). The vials were then inserted into an automated electrostatic sprayer equipped with an atomizing nozzle for application to plants/insects.
Cotton plants at the cotyledon stage were infested with aphids prior to treatment by placing a heavily infested leaf from the main aphid colony on top of each cotyledon. Aphids were allowed to transfer overnight to accomplish an infestation of 80-100 aphids per plant and the host leaf was removed. The infested plants were then sprayed by an automated electrostatic plant sprayer equipped with an atomizing spray nozzle. The plants were dried in the sprayer fume hood, removed from the sprayer, and then maintained in a growth room under fluorescent lighting in a 24-hr photoperiod at 25° C. and 20-40% relative humidity. Aphid mortality on the treated plants, relative to mortality on untreated control plants, was determined after 5 days.
(§3) The compound of example I-1 was compared with the compound of example I.B-4 of WO 2015/040116 having an unsubstituted pyrimidin-5-yl ring instead of the present 2-chloropyrimidin-5-yl ring with respect to the insecticidal activity. The assays were carried out as described above for the respective pest (the cotton aphid assay according to B.3).

[3] = system: Green Peach Aphid (Myzus persicae); assay: Green peach aphid (Myzus persicae) foliar spray test B.7; conditions: for Activity in %: comparative experiment, 300 ppm
Description: as §2
Bell pepper plants at the first true-leaf stage were infested prior to treatment by placing heavily infested leaves from the main colony on top of the treatment plants. Aphids were allowed to transfer overnight to accomplish an infestation of 30-50 aphids per plant and the host leaves were removed. The infested plants were then sprayed by an automated electrostatic plant sprayer equipped with an atomizing spray nozzle. The plants were dried in the sprayer fume hood, removed, and then maintained in a growth room under fluorescent lighting in a 24 h photoperiod at about 25° C. and about 20-40% relative humidity. Aphid mortality on the treated plants, relative to mortality on untreated control plants, was determined after 5 days.
as §3

[4] = system: Cowpea aphid (Aphis craccivora); assay: Cowpea aphid (Aphis craccivora) spray test B.5; conditions: for Activity in %: comparative experiment, 100 ppm
Description: as §1
Potted cowpea plants were colonized with approximately 30-50 aphids of various stages by manually transferring a leaf tissue cut from infested plant 24 hours before application. Plants were sprayed with the test solutions using a DeVilbiss® hand atomizer at 20-30 psi (≈1.38 to 2.07 bar) after the pest population has been checked. Treated plants were maintained on light carts at about 25-26° C. Percent mortality was assessed after 72 hours.
as §3

[5] = system: Orchid thrips (Dichromothrips corbetti); assay: Orchid thrips (Dichromothrips corbetti) floral immersion test B.10; conditions: for Activity in %: comparative experiment, 10 ppm
Description: Dichromothrips corbetti adults used for bioassay were obtained from a colony maintained continuously under laboratory conditions. For testing purposes, the test compound was diluted in a 1:1 mixture of acetone:water (vol:vol), plus Kinetic® HV at a rate of 0.01% v/v.
Thrips potency of each compound was evaluated by using a floral immersion technique. All petals of individual, intact orchid flowers were dipped into treatment solution and allowed to dry in Petri dishes. Treated petals were placed into individual re-sealable plastic along with about 20 adult thrips. All test arenas were held under continuous light and a temperature of about 28° C. for duration of the assay. After 3 days, the numbers of live thrips were counted on each petal. The percent mortality was recorded 72 hours after treatment.
as §3

[6] = system: Rice green leafhopper (Nephotettix virescens); assay: Rice green leafhopper (Nephotettix virescens) spray test B.12; conditions: for Activity in %: comparative experiment, 10 ppm
Description: (§4) Four to five-week old rice seedlings with cut upper leaf portion were cleaned and washed 24 hours before spraying. The active compounds were formulated in 1:1 acetone:water (vol:vol), and 0.01% vol/vol surfactant (Kinetic® HV) was added. Potted rice seedlings were sprayed with 5-6 ml test solution, air dried, covered with Mylar cages and inoculated with 10 adults. Treated rice plants were kept at about 28-29° C. and relative humidity of about 50-60%. Percent mortality was recorded after 72 hours.
as §3

[7] = system: Southern armyworm (Spodoptera eridania); assay: Southern armyworm (Spodoptera eridania) foliar spray test B.15; conditions: for Activity in %: comparative experiment, 300 ppm
Description: as §2
Lima bean plants (variety Sieva) were grown 2 plants to a pot and selected for treatment at the 1st true leaf stage. Test solutions were sprayed onto the foliage by an automated electrostatic plant sprayer equipped with an atomizing spray nozzle. The plants were dried in the sprayer fume hood and then removed from the sprayer. Each pot was placed into perforated plastic bags with a zip closure. About 10 to 11 armyworm larvae were placed into the bag and the bags zipped closed. Test plants were maintained in a growth room at about 25° C. and about 20-40% relative humidity for 4 days, avoiding direct exposure to fluorescent light (24 hour photoperiod) to prevent trapping of heat inside the bags. Mortality and reduced feeding were assessed 4 days after treatment, compared to untreated control plants.
as §3

[8] = system: Green Soldier Stink Bug (Nezara viridula); assay: Green soldier stink bug (Nezara viridula) test B.8; conditions: in Glycine max, 120 h, read-out: mortality in comparison with untreated controls
Description: as §1
Soybean pods were placed in 90×50 mm glass Petri dishes lined with moist filter paper and inoculated with ten late 3rd instar N. viridula. Using a hand atomizer, an approximately 2 ml solution was sprayed into each Petri dish. Treated cups were kept at about 25-26° C. and relative humidity of about 65-70%. Percent mortality was recorded after 5 days.

[9] = system: Rice brown plant hopper (Nilaparvata lugens); assay: Rice brown plant hopper (Nilaparvata lugens) spray test B.13; conditions: 72 h, read-out: mortality in comparison with untreated controls
Description: as §4, with “seedlings” for “seedlings with cut upper leaf portion”, “(vol:vol)” for “(vol:vol),”

[10] = system: Vetch aphid (Megoura viciae); assay: Vetch aphid (Megoura viciae) leaf disk test B.19; conditions: foliar, 120 h, read-out: mortality in comparison with untreated controls
Description: For evaluating control of vetch aphid (Megoura viciae) through contact or systemic means the test unit consisted of 24-well-microtiter plates containing broad bean leaf disks.
The compounds were formulated using a solution containing 75% v/v water and 25% v/v DMSO. Different concentrations of formulated compounds were sprayed onto the leaf disks at 2.5 μl, using a custom built micro atomizer, at two replications.
After application, the leaf disks were air-dried and 5-8 adult aphids placed on the leaf disks inside the microtiter plate wells. The aphids were then allowed to suck on the treated leaf disks and incubated at about 23±1° C. and about 50±5% relative humidity for 5 days. Aphid mortality and fecundity was then visually assessed.

With `CON=CC(=O)N=c1ccccn1Cc1cnc(Cl)nc1` [I-2] the “mortality in comparison with untreated controls” value [1] was “over 75%”.
Work on `N#CC1(C(=O)N=c2ccccn2Cc2cncnc2)CC1` [I.B-4, reference compound] yielded an Activity in % [2] of 0%, an Activity in % [3] of 50% and an Activity in % [4] of 0%. It also gave an Activity in % [5] of 0%, an Activity in % [6] of 50% and an Activity in % [7] of 0%.
Compound `N#CC1(C(=O)N=c2ccccn2Cc2cnc(Cl)nc2)CC1` [I-1, N-[1-[(2-chloropyrimidin-5-yl)methyl]-2-pyridylidene]-1-cyano-cyclopropanecarboxamide] has a mortality at 300 ppm [8] greater than 75%, a mortality at 300 ppm ([2]; Aphis gossypii, foliar, 120 h, read-out: mortality in comparison with untreated controls) greater than 75% and an Activity in % [2] of 90%. The mortality at 300 ppm [9] was greater than 75%, the mortality at 2500 ppm ([3]; Myzus persicae, foliar, 120 h, read-out: mortality in comparison with untreated controls) was greater than 75% and the Activity in % [3] was 100%. It also gave a mortality at 300 ppm ([4]; Aphis craccivora, 72 h, read-out: mortality in comparison with untreated controls) greater than 75%, an Activity in % [4] of 50% and a mortality at 300 ppm ([5]; Thrips, 72 h, read-out: mortality in comparison with untreated controls) greater than 75%. It also gave an Activity in % [5] of 100%, a mortality at 300 ppm ([6]; Nephotettix virescens, 72 h, read-out: mortality in comparison with untreated controls) greater than 75% and an Activity in % [6] of 90%. The mortality at 2500 ppm [10] was greater than 75%, the mortality at 300 ppm ([7]; Spodoptera eridania, in Phaseolus lunatus, foliar, 96 h, read-out: mortality in comparison with untreated controls) was greater than 75% and the Activity in % [7] was 100%.
